Measurements published in patent US6057371A, “Sigma receptor ligands and the use thereof” (Virginia Commonwealth University, priority 1992, dated 2000).
Where a name gives a salt, the structure may show the parent alone. Read-outs that look alike come from different tables or passages of the source.

How the values were obtained:
sigma receptor = assay: Sigma receptor binding, [^3 H]DTG, brain membranes (both sigma-1 and sigma-2 sites); design: species or system guinea pig; conditions: for IC50: Table 6; for change in sigma affinity, words: Example 6
Method: Sigma receptor binding assays using guinea pig brain membrane homogenates and the radioligand [^3 H]DTG were conducted as described by Weber et al.. […] Briefly, frozen whole guinea-pig brains (Biotrol, Indianapolis, Ind.) were homogenized in 10 volumes (w/v) of ice-cold 320 mM sucrose using a Brinkman polytron. The homogenate was centrifuged at 1,000× g for 20 minutes at 4° C. The supernatant was centrifuged at 20,000× g for 20 minutes at 4° C. The resulting pellet was resuspended in 10 initial volumes of 50 mM Tris/HCl buffer at pH 7.4 and centrifuged at 20,000× g for 20 minutes at 4° C. The resulting pellet was resuspended in 5 initial volumes ice-cold 50 mM Tris/Hcl […], and the final volume was adjusted to yield a protein concentration of 3 mg/ml. Aliquots of 20-ml were stored at -70° C. until used, with no detectable loss of binding.
The protein concentration in the 1-ml final incubation volume was 800 ug/ml, corresponding to 32 mg of brain tissue (original wet weight) and to a tissue concentration within the linear range for specific binding. […] Incubations were terminated after 90 minutes at room temperature by addition of 4 ml of ice-cold 50 mM Tris/HCl (pH 7.4) and rapid filtration of the membrane suspension through Whatman GF/B glass-fiber filters under vacuum, using a 48-well cell harvester (Brandel). The filters were washed 2 times with 4 ml of 50 mM Tris/HCl (pH 7.4). Each filter was suspended in 10 ml Cytoscint (ICI), and radioactivity was measured by liquid scintillation spectrometry at a counting efficiency of approximately 50%. IC50 values were determined by non-linear regression analyis.
Further sigma receptor binding assays against [^3 H]DTG and 5HT-1A binding assays were conducted according to the procedure outlined in the previous examples.
Radioligand Binding. […] Briefly, membranes (P2 microsomal fraction) were diluted 1:3 with 50 mM Tris HCl (pH 7.4) and 0.4 mL was combined with 50 μL [^3 H]DTG (1-2 nM final concentration) and 50 μL of competing drug or buffer. After 90 min at room temperature, incubation was terminated by rapid filtration under vacuum through Whatman GF/B glass fiber filters using a Brandel 48-well cell harvester. Filters were washed three times with 5 mL of cold Tris HCl buffer and each filter was suspended in 5 mL of Cytoscint (ICN Biomedical). Radioactivity was measured by liquid scintillation spectrometry at a counting efficiency of 50%.

sigma-1 binding site = biological target: T1, sigma-1 binding site (Cavia porcellus, UniProt Q60492); assay: biochemical; design: species or system guinea pig; conditions: SIGMA-1 KI vs. 3H-PENTAZOCINE MEAN
T1 construct: Guinea pig whole membrane preparations (P2 microsomal fraction); from tissue; host or cells: guinea pig membranes (P2 microsomal fraction), as described by Weber et al; brain inferred from the sister test b489
Method: [^3 H]DTG was purchased from DuPont/NEN.
The radioactivity on the filters was determined by scintillation spectrometry at an efficiency of about 50% using Cytoscint (ICN) scintillation fluid.

[1] = Table 7, Phenyl-(CH2)x -NH--(CH2)y -Phenyl, read-out: Ki
[2] = running text, Examples 5 and 6, read-out: sigma receptor Ki

T1 sequence (Q60492 whole entry): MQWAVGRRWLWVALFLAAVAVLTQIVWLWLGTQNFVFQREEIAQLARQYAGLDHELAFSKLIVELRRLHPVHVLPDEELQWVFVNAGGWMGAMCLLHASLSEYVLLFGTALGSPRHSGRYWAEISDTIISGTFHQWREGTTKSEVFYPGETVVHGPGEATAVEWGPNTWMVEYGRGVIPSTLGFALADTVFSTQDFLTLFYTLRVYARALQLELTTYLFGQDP

Molecule	IC50 (sigma receptor; [^3 H]DTG)	further results
c1ccc(CNCc2ccccc2)cc1 [x=1, y=1]	–	Ki (sigma receptor; [1]): 175 nM
OC1(c2ccccc2)CCN(CCc2ccccc2)CC1 [Compound 148]	6.43 nM	–
CC(C)(C)C1(O)CCN(CCc2ccccc2)CC1 [Compound 149]	21.5 nM	–
CCC[C@@H](Cc1ccccc1)N(C)CCCc1ccccc1 [Compound 116]	10.1 nM	–
C1CCC(CCCCCN2CCCCC2)CC1 [Compound 150]	0.96 nM	–
c1ccc(CCCNCCc2ccc3ccccc3c2)cc1 [Compound 88]	53.4 nM	–
c1ccc(CCCCCCNCCCc2ccccc2)cc1 [x=3, y=6]	–	Ki (sigma receptor; [1]): 2.6 nM
CCCCCCN(C)CCc1ccccc1 [Compound 130, N-Methyl-N-hexyl-2-phenylethylamine Hydrogen Oxalate]	4.23 nM	Ki (sigma receptor; [2]): 3.8 nM
CCCc1ccc(CC(C)N(C)CCCc2ccccc2)cc1 (centres unmarked)	–	affinity for the sigma receptor, words (sigma receptor; Example 5): highest and most selective affinity for the sigma receptor
CN(CCc1ccccc1)CCc1ccccc1 [Compound 108]	37.9 nM	–
Clc1ccc(CCCCCN2CCC(c3ccccc3)CC2)cc1 [Compound 167]	1.96 nM	–
OC1(c2ccccc2)CCNC1 (centres unmarked) [Compound 157]	6110 nM	–
c1ccc(CCCCNCCCCc2ccccc2)cc1 [x=4, y=4]	–	Ki (sigma receptor; [1]): 6.7 nM
COc1ccc(CCCCCN2CCCCC2)cc1 [Compound 164]	5.19 nM	–
CCN(CC)CCOC(=O)C1c2ccccc2-c2ccccc21 [Compound 188]	174 nM	–
CN(CCCCCc1ccccc1)CCCc1ccccc1 [Compound 136]	1.78 nM	change in sigma affinity, words (sigma receptor): doubles affinity
Oc1cccc(CCNCCCCCc2ccccc2)c1 [Compound 172, N-[2-(3-hydroxyphenyl)ethyl]-5-phenylpentylamine Hydrobromide]	7.46 nM	–
O=C(CCCCN1CCC(c2ccccc2)CC1)c1ccc(Cl)cc1 [Compound 160]	0.62 nM	–
CN1CCC(OC(c2ccccc2)c2ccccc2)CC1 [Compound 186]	656 nM	–
O=C(CCCCN1CC=C(c2ccc(Cl)cc2)CC1)c1ccc(Cl)cc1 [Compound 182]	4.68 nM	–
O=C(CCCN1CCC2(CC1)C(=O)NCN2c1ccccc1)c1ccc(F)cc1 [Spiperone, reference compound]	–	Ki (sigma-1 binding site): 10 µM
O=C(CCCCN1CCC(c2ccccc2)CC1)c1ccccc1 [Compound 166]	1.03 nM	–
O=C(CCCN1CCCCC1)c1ccc(F)cc1 [Compound 175]	42.9 nM	–
COc1ccc(CCCCCN2CCC(c3ccccc3)CC2)cc1 [Compound 165]	1.27 nM	–

Molecule	IC50 (sigma receptor; [^3 H]DTG)	further results
CCCCCCN(C)CCC [Compound 131, N-Methyl-N-propylhexylamine Hydrogen Oxalate]	46.9 nM	Ki (sigma receptor; [2]): 45 nM
c1ccc(CCCCCN2CC3CCC(CC3)C2)cc1 [Compound 190]	1.07 nM	–
O=C(CCCCN1CCCCC1)c1cccc(Cl)c1 [Compound 170]	4.18 nM	–
c1ccc(CCCCCN2CCN(CCCCCc3ccccc3)CC2)cc1 [Compound 138]	2.67 nM	–
O=C(O)C(=O)O.c1ccc(CCCCCNc2ccccc2)cc1 [Compound 135, N-Phenyl-5-phenyl pentyl amine Hydrogen Oxal ate]	13.5 nM	change in sigma receptor affinity vs. analog (sigma receptor; Examples 5 and 6, [^3 H]DTG): 6 fold; Ki (sigma receptor; [2]): 12 nM
CN1CCC(O)(c2ccccc2)CC1 [Compound 155]	1870 nM	–
O=C(CCCCN1CCC(c2ccccc2)CC1)c1cccc(Cl)c1 [Compound 171]	1.19 nM	–
COc1cccc(C(=O)CCCCN2CCCCC2)c1 [Compound 169]	22.8 nM	–
C(/C=C/c1ccc2c(c1)OCO2)=C\CN1CCCCC1 [Compound 191]	8.14 nM	–
CCCNC1CCc2ccccc2C1 (centres unmarked) [Compound 63]	763 nM	–
OC1(c2ccccc2)CC2CCC(C1)N2CCCCCc1ccccc1 (centres unmarked) [Compound 153]	2.21 nM	–
CCCC(Cc1ccccc1)NCCCc1ccccc1 (centres unmarked) [Compound 100]	25.6 nM	–
O=C(CCCCN1CCCCC1)c1ccc(F)cc1 [Compound 177]	7.37 nM	–
c1ccc(CN2CCCCC2)cc1 [Compound 147]	117 nM	–
O=C1c2ccccc2C(=O)N1CCCCN1CCN(Cc2ccccc2)CC1 [Compound 119]	21.4 nM	–
COc1ccccc1C1(O)CCNCC1 [Compound 61]	14800 nM	–
O=C(CCCCN1CCC(c2ccccc2)CC1)c1ccc(F)cc1 [Compound 178]	0.896 nM	–
O=C(CCCCN1CC=C(c2ccc(F)cc2)CC1)c1ccc(Cl)cc1 [Compound 180]	2.24 nM	–
c1ccc(CCCCNCCCc2ccccc2)cc1 [x=3, y=4]	–	Ki (sigma receptor; [1]): 7 nM
O=C(CCCCN1CCC(c2ccc(F)cc2)CC1)c1ccc(Cl)cc1 [Compound 181]	1.08 nM	–
Oc1ccccc1CCNCCCCCc1ccccc1 [Compound 173]	17.2 nM	–
COc1ccc(CCNCCCCCc2ccccc2)cc1 [Compound 146]	2.38 nM	–
O=C(c1ccccc1)N1CCNCC1 [Compound 54]	11800 nM	–
CCCN(CCCc1ccccc1)[C@@H](C)Cc1ccccc1 [Compound 133]	6.44 nM	–

Molecule	IC50 (sigma receptor; [^3 H]DTG)	further results
O=C(CCCCN1CCC(c2ccc(Cl)cc2)CC1)c1ccc(Cl)c(Cl)c1 [Compound 184]	1.98 nM	–
O=C(CCCCN1CCCCC1)c1ccc(Cl)cc1 [Compound 159]	1.3 nM	–
COc1cccc(C(=O)CCCCN2CCC(c3ccccc3)CC2)c1 [Compound 174]	1.1 nM	–
COc1ccc(C(=O)CCCCN2CCC(c3ccccc3)CC2)cc1 [Compound 162]	0.9 nM	–
CCN(CC)CCOC(=O)C(c1ccccc1)c1ccccc1 [Compound 187]	50.6 nM	–
CN1C2CCC1CC(O)(c1ccccc1)C2 (centres unmarked) [Compound 154]	3960 nM	–
O=C1c2ccccc2C(=O)N1CCN1CCN(c2ccccc2)CC1 [Compound 95]	17000 nM	–
C(CCNCC1CCCCC1)CCC1CCCCC1 [Compound 151, H-Cyclohexylmethyl-5-cyclohexylpentylamine Hydrochloride]	1.39 nM	–
O=C(CCCCN1CCC(c2ccc(Cl)cc2)CC1)c1ccc(Cl)cc1 [Compound 183]	1.97 nM	–
CN(CCCCCC1CCCCC1)CC1CCCCC1.Cl [Compound 152, N-Methyl-N-cyclohexylmethyl-5-cyclohexylpentylamine Hydrochloride]	1.76 nM	change in sigma affinity, words (sigma receptor): doubles affinity
c1ccc(C2CCNCC2)cc1 [Compound 58]	2050 nM	–
COc1ccc(C(=O)CCCCN2CCCCC2)cc1 [Compound 161]	10.9 nM	–
O=C(CCCCN1CCC(O)(c2ccc(Cl)cc2)CC1)c1ccc(F)cc1 [Compound 179]	2.82 nM	–
CN1CCC(O)(c2ccc(Cl)cc2)CC1 [Compound 156]	131 nM	–
O=C(CCCCN1CCCCC1)C1CCCC1 [Compound 189]	13.5 nM	–
COc1cccc(CCNCCCCCc2ccccc2)c1 [Compound 145]	1.63 nM	–
CN1CCc2ccccc2C(c2ccccc2)C1 (centres unmarked) [Compound 102]	6690 nM	–
c1ccc(CNCc2ccccc2)cc1 [Compound 109]	184 nM	–
CCCN(C)CCCCCc1ccccc1 [Compound 122]	–	Ki (sigma receptor; [2]): 2.4 nM
c1cnc(N2CCNCC2)nc1 [Compound 107]	10000 nM	–
N-(3-phenylpropyl)isopropylamine	–	Ki (sigma receptor; [2]): 22 nM
CCN1CCC[C@H]1CNC(=O)c1c(OC)ccc(Br)c1OC [Remoxipride, reference compound]	–	Ki (sigma-1 binding site): 0.312 µM
COc1ccccc1CCNCCCCCc1ccccc1 [Compound 144]	4.39 nM	–
